Experimental findings from patent US20240016784A1, “Y BOX BINDING PROTEIN 1 INHIBITORS” (Oregon Health & Science University, priority 2020, published 2024) are described below.

One data set can be described thus: Pharmacokinetics study. In kind it is in vivo. As to conditions: injection of 20 mg/kg, intraperitoneal, mouse. Here is the method:
In a pharmacokinetics study in vivo, injection of 20 mg/kg SU056 led to a maximum serum concentration of 28.19 μg/mL with a T1/2 of ˜45 min. We then tested the synergism of paclitaxel and SU056 co-treatment in vivo in NOD-SCID mice implanted with OVCAR8 OC tumors as described above. Mice were given daily treatment of SU056 (10 mg/kg) and weekly treatment of paclitaxel (5 mg/kg) were administered intraperitoneally. […] This likely resulted from decreased paclitaxel efflux from OVCAR8 cells in the presence of SU056.
Pharmacokinetics study: SU056 Plasma concentration was determined by mass quantification analysis using an Agilent 6490 Funnel triple quadrupole (QQQ) mass spectrometer equipped with an Agilent 1290 infinity II UHPLC. An analytical C18 column, ZORBAX C18 (Eclipse Plus, 2.1×50 mm, 1.8 μm particle size) was used. The mobile phase was composed of 60% water buffered with 0.1% formic acid and 4 mM ammonium formate and 40% acetonitrile buffered with 0.1% formic acid. […] The precursor ion [M+H]+ and product ion for SU056 were monitored at m/z 370.0 and m/z 274.2, respectively. And the precursor ion [M+H]+ and product ion for IS were monitored at m/z 338.1 and m/z 260, respectively. […]
FIG. 10: Pharmacokinetics of SU056. […] After injection plasma was collected at respective time point and was analyzed using LC MS/MS as described in method.

In data set [1] the test system is efflux of paclitaxel in OC cells. The experiment in a line: Paclitaxel efflux assay. It counts as cell-based. Conditions: SU056 co-treatment vs only paclitaxel-treated cells. An excerpt: YB-1 is involved in the emergence of cisplatin and taxane drug resistance (Kang et al., 2013, Mo et al., 2016). Therefore, we tested whether SU056 synergizes with chemotherapies such as paclitaxel to modulate YB-1. To measure this, we performed a dose dependent combination study of SU056 and paclitaxel. […] ABCB1/MDR1 drug efflux pumps are also known to play an important downstream role with YB-1 in increased taxol efflux and subsequent TR in cancer. To evaluate whether SU056 affects drug efflux, we used Alexa Fluor-488-tagged paclitaxel to measure taxol efflux in vitro. […] Efflux is primarily driven by the ATP-binding cassette transporters (ABC pumps) present on the cell surface (Genovese et al., 2017). We examined the expression of MDR1 and YB-1 in OVCAR8 cells treated with vehicle, SU056, and paclitaxel combinations via Western blot.
Paclitaxel efflux assay: OC cells were treated with 5 nM Oregon Green™ 488-conjugated paclitaxel (Molecular Probes, #P22310) for 1 h. Cells were washed and incubated in phenol red-free DMEM media supplemented with 10% FBS. After each respective time point (30, 60, 120, 180 minutes), the media was collected and centrifuged to remove floating cells. The fluorescence intensity of efflux paclitaxel in media was read at Ex 496 and Em 524 using a multimode plate reader.
Combination index values for paclitaxel and SU056. […] FIG. 7C) Immunoblotting of YB-1 and MDR1. […]

The subject of another data set is 4T1 tumor xenograft. The experiment in a line: 4T1 tumor xenograft. It counts as in vivo, BALB/c mice. As to conditions: SU056 50 mg/kg, oral gavage. The method, then: Mice were subcutaneously injected with 4T1 cells and drug treatment started after three day of implantation. Mice were given either vehicle (40% PEG in saline) or SU056 (50 mg/kg) through oral route using oral gavage. FIG. 14A) Tumor volume (4T1) as a function of time. FIG. 14B) Tumor weight (4T1) at the end of the study. FIG. 14C) Body weight (4T1) as a function of time. FIG. 14D) Representative images of tumor (4T1) at the end of study. Combination of Paclitaxel and SU056 in 4T1 xenograft model. FIG. 14E) Tumor volume (4T1) as a function of time. FIG. 14F) Tumor weight (4T1) at the end of the study. FIG. 14G) Body weight (4T1) as a function of time.

Regarding `O=C1OCC2=C1C(c1cccc(F)c1)c1cc3c(cc1N2CCO)OCO3` (stereo not shown) [SU056, 9-(3-fluorophenyl)-5-(2-hydroxyethyl)-6,9-dihydro-[1,3]dioxolo[4,5-g]furo[3,4-b]quinolin-8(5H)-one], in the data set “Pharmacokinetics study”, the maximum serum concentration stood at 28.19 µg/mL. For the same molecule, the half-life in “Pharmacokinetics study” (plasma, ip) is about 45 min. The “efflux of Alexa Fluor-488-tagged paclitaxel” value in data set [1] is given as “significantly inhibits the efflux of paclitaxel”. For the same molecule, the “4T1 tumor xenograft growth” value with 4T1 tumor xenograft is recorded as “inhibit 4T1 tumor xenograft”.

As a reminder, the half-life is the time in which the quantity being followed falls by half.
